Assays:
PHHs-PHKCs co-cultures = assay: Alamar Blue cell viability, PHHs-PHKCs co-cultures; assay type: cell-based, human; settings: 24 hours treatment, PHHs-PHKCs co-cultures vs PHHs monocultures, FIG. 5A
Method: (§1) PHHs monocultures, PHHs-PHKCs co-cultures (FIG. 5A), PHHs-hPSC-KCs co-cultures (FIG. 5B) and PHHs-hPSC-Mac co-cultures (FIG. 5C) treated with LPS (solid lines) or left untreated (dashed lines) were exposed to Acetaminophen (APAP) 16 hours after LPS treatment. 24 hours after addition of the drug, cell viability was assayed using Alamar Blue. Cell viability is expressed as percentage of viable cells compared to vehicle control (DMSO). Data are presented as mean±s.d (n=3). * indicates statistically significant differences between LPS-activated monoculture and co-culture; # indicate statistically significant differences between non-activated monoculture and co-culture (p<0.05).
(§2) Previous reports have shown the suppression of CYP expression and activity in human and rat hepatocytes when co-cultured with Kupffer cells. […] Therefore, it was analyzed if differences could be identified between PHHs-PHKCs co-cultures and PHHs monocultures in toxicity responses to paradigm hepatotoxicants, and if this difference could be recapitulated in PHHs-hPSC-KCs or PHHs-hPSC-Mac co-cultures. The monocultures and co-cultures were treated with the paradigm hepatotoxicant acetaminophen for 24 hours, and cell viability was measured using Alamar Blue assay. Cell viability was quantified as percentage of […] compared to vehicle control (DMSO).

[1] = tested on: PHHs-hPSC-KCs co-cultures; assay: Alamar Blue cell viability, PHHs-hPSC-KCs co-cultures; assay type: cell-based, human; settings: 24 hours treatment, PHHs-hPSC-KCs co-cultures vs PHHs monocultures, FIG. 5B
Method: as §1, §2

PHHs-NL-Mφ co-cultures = assay: Alamar Blue cell viability, PHHs-NL-Mφ co-cultures; assay type: cell-based, human; settings: 24 hours treatment, PHHs-NL-Mφ co-cultures vs PHHs monocultures, FIG. 5C
Method: as §1, §2

[2] = tested on: primary human hepatocytes (PHHs); assay: cytokine production (ELISA) upon LPS activation, PHHs; assay type: cell-based
Method: (§3) FIG. 3A are phase contrast images showing morphological changes in hPSC-KCs (upper panel) and NL-Mφ (lower panel) following LPS treatment. Scale bar: 100 μm. […] Supernatant from cell cultures were collected 16 hours after LPS treatment and cytokine production was measured using ELISA. IL-6 and TNF4α (after LPS treatment) production was not detected in PHHs. TNF4α production was not detected in NL-Mφ before LPS treatment. Data are presented after normalization to cell numbers and the bars represent mean±s.d. (n=3). Dashed lines represent fold differences between cytokine production before and after LPS treatment (folds are indicated on top of the dashed lines). Solid lines represent p<0.05 (two-tailed paired t-test). […] No significant differences were observed between IL-6 levels in hPSC-KCs and PHKCs in terms of basal levels (no LPS treatment) and LPS-induced levels. The fold increase in TNF4α production in hPSC-KCs (33 fold) was similar to the fold increase in PHKCs (35 fold). […] It has been reported that Kupffer cells show a lower extent of cytokine production upon cytokine stimulation.
(§4) For activation of hPSC-KCs to examine cytokine production, lipopolysaccharide (LPS) was added to the culture medium during the last 16 hours of culture. Medium was collected at the end of the incubation period and morphological changes and cytokine production upon LPS activation was analyzed. […]

[3] = tested on: PHKCs (primary human Kupffer cells); assay: cytokine production (ELISA) upon LPS activation, PHKCs; assay type: cell-based; settings: LPS during last 16 hours of culture
Method: as §3, §4

[4] = tested on: NL-Mφ (non-liver macrophages); assay: cytokine production (ELISA) and morphology upon LPS activation, NL-Mφ; assay type: cell-based, human
Method: as §3, §4

hPSC-KCs = assay: cytokine production (ELISA) and morphology upon LPS activation, hPSC-KCs; assay type: cell-based, human
Method: as §3
For activation of hPSC-KCs to examine cytokine production, lipopolysaccharide (LPS) was added to the culture medium during the last 16 hours of culture. Medium was collected at the end of the incubation period and morphological changes and cytokine production upon LPS activation was analyzed. […] The fold increase in TNF4α production in hPSC-KCs (33 fold) was similar to the fold increase in PHKCs (35 fold) (FIG. 3C).

Compound | cell death compared to monoculture controls (PHHs-PHKCs co-cultures) | cell death compared to monoculture controls [1] | cell death compared to PHHs monocultures (PHHs-NL-Mφ co-cultures) | IL-6 production ([2]; FIG. 3B) | TNF4α production ([2]; upon LPS activation) | fold induction of IL-6 production ([3]; FIG. 3B) | fold increase in TNF4α production ([3]; FIG. 3C) | levels of cytokines (IL-6, TNF4α) ([4]; NL-Mφ compared to PHKCs and hPSC-KCs, FIG. 3B and 3C) | morphological changes ([4]; NL-Mφ, LPS activation, FIG. 3A) | morphological changes (hPSC-KCs; LPS activation, FIG. 3A) | fold induction of IL-6 production (hPSC-KCs; LPS during last 16 hours of culture, FIG. 3B) | fold increase in TNF4α production (hPSC-KCs; LPS during last 16 hours of culture, FIG. 3C)
CC(=O)Nc1ccc(O)cc1 [acetaminophen] | higher cell death | higher cell death | No difference in cell death | – | – | – | – | – | – | – | – | –
lipopolysaccharide [LPS] | – | – | – | below detectable levels | below detectable levels | 25 fold | 35 fold | much higher levels | from round to flat and spread cells | from round to flat and spread cells | in the same range as that of the PHKCs | 33 fold
